| Structure (SMILES) | melting point |
| --- | --- |
| N#Cc1cccc(C2=Nc3ccc(-n4cc(C#N)c(-c5ccccc5Cl)c4)cc3NC(=O)C2)c1 [Example 5, 4-(2-Chloro-phenyl)-1-[2-(3-cyano-phenyl)-4-oxo-4,5-dihydro-3H-benzo[b][1,4]diazepin-7-yl]-1H-pyrrole-3-carbonitrile] | 252 °C (dec.) |
| NC(=O)c1nc(-c2cccc(C3=Nc4ccc(-n5cccc5)cc4NC(=O)C3)c2)cs1 [Example 30, 4-[3-(4-oxo-7-Pyrrol-1-yl-4,5-dihydro-3H-benzo[b][1,4]diazepin-2-yl)-phenyl]-thiazole-2-carboxylic Acid Amide] | 267 to 269 °C |
| O=C1CC(c2cccc(-n3nncc3CO)c2)=Nc2cc(F)c(C(F)(F)F)cc2N1 [Example 51, 7-Fluoro-4-[3-(5-hydroxymethyl-[1,2,3]triazol-1-yl)-phenyl]-8-trifluoromethyl-1,3-dihydro-benzo[b][1,4]diazepin-2-one] | 197 to 199 °C |
| Cc1cc(-c2cccc(C3=Nc4cc(N5CCOCC5)c(C#N)cc4NC(=O)C3)c2)on1 [Example 61, 2-[3-(3-Methyl-isoxazol-5-yl)-phenyl]-8-morpholin-4-yl-4-oxo-4,5-dihydro-3H-benzo[b][1,4]diazepine-7-carbonitrile] | 252 °C |
| N#Cc1cccc(C2=Nc3ccc(-n4cc(C#N)c(-c5ccccc5)c4)cc3NC(=O)C2)c1 [Example 6, 1-[2-(3-Cyano-phenyl)-4-oxo-4,5-dihydro-3H-benzo[b][1,4]diazepin-7-yl]-4-phenyl-1H-pyrrole-3-carbonitrile] | 274 °C (dec.) |
| Cc1cc(-c2cccc(C3=Nc4cc(N5CCOCC5)c(C(F)(F)F)cc4NC(=O)C3)c2)on1 [Example 3, 4-[3-(3-Methyl-isoxazol-5-yl)-phenyl]-7-morpholin-4-yl-8-trifluoromethyl-1,3-dihydro-benzo[b][1,4]diazepin-2-one] | 170 °C |
| CCOc1cc2c(cc1C(F)(F)F)NC(=O)CC(c1cccc(-n3nncc3CNC3CC3)c1)=N2 [Example 54, 4-[3-(5-Cyclopropylaminomethyl-[1,2,3]triazol-1-yl)-phenyl]-7-ethoxy-8-trifluoromethyl-1,3-dihydro-benzo[b][1,4]diazepin-2-one] | 80 °C |
| O=C1CC(c2cccc(-c3csc(CO)n3)c2)=Nc2ccc(-n3cccc3)cc2N1 [Example 33, 4-[3-(2-Hydroxymethyl-thiazol-4-yl)-phenyl]-8-pyrrol-1-yl-1,3-dihydro-benzo[b][1,4]diazepin-2-one] | 185 to 190 °C (dec.) |
| CCOC(=O)c1nc(-c2cccc(C3=Nc4ccc(-n5cccc5)cc4NC(=O)C3)c2)cs1 [Example 28, 4-[3-(4-oxo-7-Pyrrol-1-yl-4,5-dihydro-3H-benzo[b][1,4]diazepin-2-yl)-phenyl]-thiazole-2-carboxylic Acid Ethyl Ester] | 213 to 215 °C |
| O=C1CC(c2cccc(-n3nncc3CO)c2)=Nc2cc(Cl)c(C(F)(F)F)cc2N1 [Example 63, 7-Chloro-4-[3-(5-hydroxymethyl-[1,2,3]triazol-1-yl)-phenyl]-8-trifluoromethyl-1,3-dihydro-benzo[b][1,4]diazepin-2-one] | 198 °C |
| N#Cc1cc2c(cc1N1CCOCC1)N=C(c1cccc(-n3nncc3CO)c1)CC(=O)N2 [Example 60, 2-[3-(5-Hydroxymethyl-[1,2,3]triazol-1-yl)-phenyl]-8-morpholin-4-yl-4-oxo-4,5-dihydro-3H-benzo[b][1,4]diazepine-7-carbonitrile] | 180 °C |
| COc1cc2c(cc1C(F)(F)F)NC(=O)CC(c1ccnc(C#N)c1)=N2 [Example 44, 4-(8-Methoxy-4-oxo-7-trifluoromethyl-4,5-dihydro-3H-benzo[b][1,4]diazepin-2-yl)-pyridine-2-carbonitrile] | 227 °C |
| NC(=O)c1cccc(C2=Nc3ccc(-n4cccc4)cc3NC(=O)C2)c1 [Example 8, 3-(4-oxo-7-Pyrrol-1-yl-4,5-dihydro-3H-benzo[b][1,4]diazepin-2-yl)-benzamide] | 238 to 239 °C (dec.) |
| CN(C)Cc1cnnn1-c1cccc(C2=Nc3cc(N4CCOCC4)c(C(F)(F)F)cc3NC(=O)C2)c1 [Example 40, 4-[3-(5-Dimethylaminomethyl-[1,2,3]triazol-1-yl)-phenyl]-7-morpholin-4-yl-8-trifluoromethyl-1,3-dihydro-benzo[b][1,4]diazepin-2-one] | 180 °C |
| O=C1CC(c2cccc(-c3cc(CO)no3)c2)=Nc2cc(N3CCOCC3)c(C(F)(F)F)cc2N1 [Example 39, 4-[3-(3-Hydroxymethyl-isoxazol-5-yl)-phenyl]-7-morpholin-4-yl-8-trifluoromethyl-1,3-dihydro-benzo[b][1,4]diazepin-2-one] | 196 °C |
| Cc1cc(-c2cccc(C3=Nc4cc(N5CCSCC5)c(C(F)(F)F)cc4NC(=O)C3)c2)on1 [Example 41, 4-[3-(3-Methyl-isoxazol-5-yl)-phenyl]-7-thiomorpholin-4-yl-8-trifluoromethyl-1,3-dihydro-benzo[b][1,4]diazepin-2-one] | 230 to 233 °C |
| O=C1CC(c2cccc(-n3cnnc3)c2)=Nc2cc(N3CCOCC3)c(C(F)(F)F)cc2N1 [Example 50, 7-Morpholin-4-yl-4-(3-[1,2,4]triazol-4-yl-phenyl)-8-trifluoromethyl-1,3-dihydro-benzo[b][1,4]diazepin-2-one] | 233 to 236 °C |
| Cc1cc(-c2cccc(C3=Nc4ccc(-n5cccc5)cc4NC(=O)C3)c2)on1 [Example 29, 4-[3-(3-Methyl-isoxazol-5-yl)-phenyl]-8-pyrrol-1-yl-1,3-dihydro-benzo[b][1,4]diazepin-2-one] | 248 to 250 °C |
| O=C1CC(c2cccc(-c3nc(CO)co3)c2)=Nc2ccc(-n3cccc3)cc2N1 [Example 26, 4-[3-(4-Hydroxymethyl-oxazol-2-yl)-phenyl]-8-pyrrol-1-yl-1,3-dihydro-benzo[b][1,4]diazepin-2-one] | 240 to 242 °C |
| CCOC(=O)c1csc(-c2cccc(C3=Nc4ccc(-n5cccc5)cc4NC(=O)C3)c2)n1 [Example 19, 2-[3-(4-oxo-7-Pyrrol-1-yl-4,5-dihydro-3H-benzo[b][1,4]diazepin-2-yl)-phenyl]-thiazole-4-carboxylic Acid Ethyl Ester] | 198 to 201 °C |
| O=C1CC(c2cccc(-n3cccn3)c2)=Nc2cc(N3CCOCC3)c(C(F)(F)F)cc2N1 [Example 49, 7-Morpholin-4-yl-4-(3-pyrazol-1-yl-phenyl)-8-trifluoromethyl-1,3-dihydro-benzo[b][1,4]diazepin-2-one] | 166 °C |
| COCCOc1cc2c(cc1-n1cccc1)NC(=O)CC(c1cccc(C#N)c1)=N2 [Example 10, 3-[8-(2-Methoxy-ethoxy)-4-oxo-7-pyrrol-1-yl-4,5-dihydro-3H-benzo[b][1,4]diazepin-2-yl]-benzonitrile] | 189 to 195 °C |

The next lines start with the values.

| melting point | Structure (SMILES) |
| --- | --- |
| 206 to 207 °C | CC(=O)OCc1coc(-c2cccc(C3=Nc4ccc(-n5cccc5)cc4NC(=O)C3)c2)n1 [Example 78, Acetic Acid 2-[3-(4-oxo-7-Pyrrol-1-yl-4,5-dihydro-3H-benzo[b][1,4]diazepin-2-yl)-phenyl]-oxazol-4-ylmethyl Ester] |
| 166 to 167 °C | O=C1CC(c2cccc(-c3nc(CN4CCOCC4)co3)c2)=Nc2ccc(-n3cccc3)cc2N1 [Example 81, 4-[3-(4-Morpholin-4-ylmethyl-oxazol-2-yl)-phenyl]-8-pyrrol-1-yl-1,3-dihydro-benzo[b][1,4]diazepin-2-one] |
| 240 °C | Cc1cc(-c2cccc(C3=Nc4cc(C)c(C(F)(F)F)cc4NC(=O)C3)c2)on1 [Example 70, 7-Methyl-4-[3-(3-methyl-isoxazol-5-yl)-phenyl]-8-trifluoromethyl-1,3-dihydro-benzo[b][1,4]diazepin-2-one] |
| 241 °C | Cc1cc2c(cc1C(F)(F)F)NC(=O)CC(c1cccc(-n3cncn3)c1)=N2 [Example 74, 7-Methyl-4-(3-[1,2,4]triazol-1-yl-phenyl)-8-trifluoromethyl-1,3-dihydro-benzo[b][1,4]diazepin-2-one] |
| 237 °C | Cc1cc2c(cc1C(F)(F)F)NC(=O)CC(c1cccc(-n3ccnn3)c1)=N2 [Example 76, 7-Methyl-4-(3-[1,2,3]triazol-1-yl-phenyl)-8-trifluoromethyl-1,3-dihydro-benzo[b][1,4]diazepin-2-one] |
| 215 °C | Cc1cc2c(cc1C(F)(F)F)NC(=O)CC(c1cccc(-n3nncc3CO)c1)=N2 [Example 68, 4-[3-(5-Hydroxymethyl-[1,2,3]triazol-1-yl)-phenyl]-7-methyl-8-trifluoromethyl-1,3-dihydro-benzo[b][1,4]diazepin-2-one] |
| 172 to 175 °C | CN(C)Cc1coc(-c2cccc(C3=Nc4ccc(-n5cccc5)cc4NC(=O)C3)c2)n1 [Example 80, 4-[3-(4-Dimethylaminomethyl-oxazol-2-yl)-phenyl]-8-pyrrol-1-yl-1,3-dihydro-benzo[b][1,4]diazepin-2-one] |
| 252 °C | Cc1cc(-c2cccc(C3=Nc4cc(Cl)c(C(F)(F)F)cc4NC(=O)C3)c2)on1 [Example 65, 7-Chloro-4-[3-(3-methyl-isoxazol-5-yl)-phenyl]-8-trifluoromethyl-1,3-dihydro-benzo[b][1,4]diazepin-2-one] |
| 212 °C | O=C1CC(c2cccc(-n3ncnc3CO)c2)=Nc2cc(Cl)c(C(F)(F)F)cc2N1 [Example 64, 7-Chloro-4-[3-(5-hydroxymethyl-[1,2,4]triazol-1-yl)-phenyl]-8-trifluoromethyl-1,3-dihydro-benzo[b][1,4]diazepin-2-one] |
| 182 to 183 °C | CNCc1coc(-c2cccc(C3=Nc4ccc(-n5cccc5)cc4NC(=O)C3)c2)n1 [Example 79, 4-[3-(4-Methylaminomethyl-oxazol-2-yl)-phenyl]-8-pyrrol-1-yl-1,3-dihydro-benzo[b][1,4]diazepin-2-one] |
| 219 °C | O=C1CC(c2cccc(-n3ccnn3)c2)=Nc2cc(Cl)c(C(F)(F)F)cc2N1 [Example 73, 7-Chloro-4-(3-[1,2,3]triazol-1-yl-phenyl)-8-trifluoromethyl-1,3-dihydro-benzo[b][1,4]diazepin-2-one] |
| 258 °C | O=C1CC(c2cccc(-n3cncn3)c2)=Nc2cc(Cl)c(C(F)(F)F)cc2N1 [Example 71, 7-Chloro-4-(3-[1,2,4]triazol-1-yl-phenyl)-8-trifluoromethyl-1,3-dihydro-benzo[b][1,4]diazepin-2-one] |

— patent publication US6548495B2, “Dihydro-benzo [B] [1,4] diazepin-2-one derivatives” (Hoffmann-La Roche Inc., priority 2002, dated 2003)
